In series [1] the test system is Botrytis cinerea. To be noted: 2% malt extract medium, 1.5–2×10^3 spores/ml, room temperature, 3d, visual screening; lowest concentration with no visible growth; at least two independent replicates.
Series [2] relates to Clavibacter michiganensis ssp. michiganensis. To be noted: LB-medium, 27°C.
Series [3] concerns Pseudomonas syringae pv. tomato. To be noted: LB-medium, 27°C.
Series [4] concerns Pseudomonas corrugata. As to conditions: LB-medium, 27°C.
Series [5] has as its system Cladosporium herbarum. As to conditions: 2% malt extract medium, 1.5–2×10^3 spores/ml, room temperature, 3d, visual screening; lowest concentration with no visible growth; at least two independent replicates.
Series [6] has as its system tested plant pathogens. Put plainly: Microdilution assay, activity summarised over several tested plant pathogens. Format: cell-based. On the procedure: In-vitro inhibition assays were performed in sterile flat-bottom 96-well polypropylene-plates (Greiner bio-one, Frickenhausen, Germany). 10 µl (antibacterial assay) or 20 µl (antifungal assay) of each concentration were loaded per well. Fresh bacterial colonies were transferred into LB-medium, grown to an OD600 nm of 0.08–0.1 and diluted 1∶100 with medium. 90 µl of this suspension containing about 10^5 CFU/ml of bacteria were added to each well resulting in final peptide concentrations from 0 to 100 µg/ml. After incubation at 27°C for 1–2d bacterial growth was analyzed by measuring the OD590 nm using a Tecan Genios microplate reader (Crailsheim, Germany).
Spores of plant pathogenic fungi were collected by washing sporulating cultures with water. Spore concentration was determined by haematocytometer and adjusted to 1.5–2×10^3 spores/ml in 2% malt extract medium. 80 µl of fungal spores were added per well resulting in final peptide concentrations from 0 to 100 µg/ml. After incubation at room temperature for 3d on a rotary shaker (300 rpm), fungal growth was determined by measuring the OD590 nm (Alternaria sp.) or by visual screening of the plates (Botrytis sp., Cladosporium sp.). The lowest peptide concentration, where no visible microbial growth could be detected, was determined for each organism-peptide combination and referred to as the minimal inhibitory concentration (MIC). At least two independent replicates were performed.

In series [7] the test system is Fusarium solani. As to conditions: 2% malt extract medium, room temperature, 3d; concentration range 1 to 64 µg/ml.
Series [8] has as its system Xanthomonas vesicatoria. To be noted: LB-medium, 27°C.
The test system of series [9] is Pectobacterium carotovorum ssp. carotovorum. To be noted: LB-medium, 27°C.
Series [10] concerns Pseudomonas syringae pv. syringae. As to conditions: LB-medium, 27°C.
Series [11] concerns human erythrocytes. To be noted: cited from earlier work.
Series [12] deals with Alternaria alternata. As to conditions: 2% malt extract medium, 1.5–2×10^3 spores/ml, room temperature, 3d, OD590 nm; lowest concentration with no visible growth; at least two independent replicates.
For series [13], the system named is Arabidopsis mesophyll protoplasts. The series is described as follows: Phytotoxicity on plant protoplasts. Format: cell-based. As to conditions: for phytotoxicity (in words): concentrations up to 100 µg/ml. On the procedure:
Phytotoxicity was measured on Arabidopsis mesophyll protoplasts prepared from leaves as described in [80]. 80 µl protoplast suspension containing about 5000 protoplasts were incubated with 20 µl peptide solution. Final peptide concentrations were 0, 10, 100 and 200 µg/ml. The phytotoxic effect of antimicrobial peptides was observed after 1 h with a light microscope. Hints to cell death are loss of spherical shape, chloroplast release and/or agglomeration of protoplasts.

Series [14] deals with C. herbarum. The series is described as follows: Peptide spraying on inoculated tomato leaves, fungal growth. As to conditions: 5 µg/ml peptide sprayed 22 h after inoculation (10^4 spores/ml); fungal DNA by RT-PCR. Format: in vivo, C. herbarum on tomato (Microtom). On the procedure:
(§1) To determine antifungal activity of AMPs four week old tomato plants (Microtom) were inoculated with fungal spores using an aerosol can. Spores were harvested by washing sporulating plate-grown fungi (A. alternata and C. herbarum) with 62.5 mM KH2PO4 (pH 6.0) supplemented with 5.5 mM glucose and 0.1% Tween-20. One leaf per plant (three plants per treatment) was sprayed adaxial and abaxial with 500 µl spore suspension (10^4 spores/ml). In this way approximately 100 µl spore suspension was applied directly onto the plant surface. Plants were covered with a plastic cap to guarantee high humidity and incubated at 20°C. After two hours the T0 tissue sample was collected. AMPs were sprayed onto the leaf surface 22 h after inoculation. Leaves were harvested 24 h and 48 h after peptide treatment. Frozen material was homogenized in liquid nitrogen and fungal DNA was isolated. Quantification of fungal DNA content was done by qRT-PCR amplifying the nuclear encoded ribosomal internal transcribed spacer (ITS) regions. ITS1-forward and ITS4-reverse primers were used at an annealing temperature of 60°C: For A. alternata: ITS1-Alt-for, 5′-[…]-3′ and ITS4_Alt-rev, 5′-[…]-3′ and for C. herbarum: ITS1-Cla-for 5′-[…]-3′ and ITS4-Cla-rev, 5′-[…]-3′ (synthesized by metabion, Munich, Germany). […] Differences between the mean values were analysed using an unpaired t-test analysis of variance.

Series [15] has as its system human erythrocytes. Put plainly: Hemolytic activity (hemoglobin release). Format: cell-based. As for the experimental part:
The hemolytic activity of the peptides was evaluated by determining hemoglobin release of suspensions of fresh human erythrocytes at 405 nm. Human red blood cells (Deutscher Blutspendedienst, München, Germany) were centrifuged and washed three times with Tris-buffer (10 mM Tris, 150 mM NaCl, pH 7.4). 80 µl of cells (1.5×10^9 cells/ml) were added to 20 µl of the peptide solution in 96-well plates and incubated for 45 min at 37°C. Final peptide concentrations were 0, 20, 50, 100 and 200 µg/ml. After centrifugation (1,500 g, 5 min, 20°C) 30 µl aliquots of the supernatant were transferred to 96-well plates containing 100 µl of water and released hemoglobin was determined using a microplate reader (OD405 nm). 100% hemolysis was determined with 2% SDS.

The test system of series [16] is P. syringae. To be noted: Table S5; 10 µg/ ml peptide; organism P. syringae pv syrimgae [sic].
Series [17] relates to P. syringae pv. tomato DC3000. As to conditions: peptide concentrations up to 100 µg/ml, sprayed; cfu 30 min after treatment.
The subject of series [18] is A. alternata. The series is described as follows: Peptide spraying on inoculated tomato leaves, fungal growth. Format: in vivo, A. alternata on tomato (Microtom). As to conditions: 50 µg/ml peptide sprayed 22 h after inoculation (10^4 spores/ml); fungal DNA by RT-PCR. As for the experimental part:
as §1

Setting [19] is: about 10^5 CFU/ml, 1–2d, OD590 nm, at least two independent replicates.

Like-named read-outs stand apart in the source and are kept apart here. Ends that are not written are not given here. Some results are limits rather than exact numbers.

Consider “GIGKFLHSAKKFGKAFVGEIMNS [Magainin II, reference compound]”, for which the MIC in [1] was 64 mg/L; in series [2] (setting [19]), 32 mg/L; in series [3] (setting [19]), 32 mg/L; in series [4] (setting [19]) it was 32 mg/L; in series [5], 64 mg/L; in [7], 2 mg/L. Also, the minimal inhibitory concentration (MIC) in series [8] (setting [19]) is 8 mg/L; in [9] (setting [19]), more than 64 mg/L; in [10] (setting [19]), more than 64 mg/L; in [12] it was more than 64 mg/L. In addition, the “active concentrations (MIC)” value in series [6] (statement over some / the majority of the tested plant pathogens or bacteria) lay in the range of 1 to 8 mg/L. For the same compound, the Hemolytic activity in [11] (Table S5, ref Zasloff, 1987) is 5 µg/mL.
On to “KRRLIARILRLAARALVKKR-NH2 [SP13-D, D-amino acid modified SP13]”, for which the MIC in [1] was more than 40 mg/L; in series [2] (setting [19]), 10 mg/L; in series [3] (setting [19]), 1 mg/L; in series [4] (setting [19]), 40 mg/L; in [5] it was 5 mg/L; in series [8] (setting [19]) it was 2 mg/L. Moreover, the figures for the minimal inhibitory concentration (MIC) in series [9] (setting [19]) and in [12] were more than 40 mg/L and 20 mg/L, respectively. Moreover, in [13], the “phytotoxicity (in words)” value is given as “no phytotoxicity”. Also, the “growth inhibition on tomato leaves” value in series [14] is given as “More than 80%”.
`CC(C)C[C@H](NC(=O)[C@H](CCCNC(=N)N)NC(=O)CNC(=O)CNC(=O)[C@@H](N)CCCNC(=N)N)C(=O)N[C@H]1CSSC[C@@H](C(=O)N[C@H](C(=O)NCC(=O)N[C@@H](CCCNC(=N)N)C(N)=O)C(C)C)NC(=O)[C@H](C(C)C)NC(=O)[C@@H]2CSSC[C@H](NC(=O)[C@H](Cc3ccc(O)cc3)NC1=O)C(=O)N[C@@H](CCCNC(=N)N)C(=O)N[C@@H](CCCNC(=N)N)C(=O)N[C@@H](CCCNC(=N)N)C(=O)N[C@@H](Cc1ccccc1)C(=O)N2` [Protegrin I, reference compound] registered a Hemolytic activity: peptide concentration leading to 25% hemoglobin release of 50 µg/mL. For the same compound, in series [15] (50 µg/ml peptide, human red blood cells), the hemoglobin release stood at 25%. In addition, in [6] (Table S5, strains listed under strain specificity), the “Activity range: peptide concentrations necessary to inhibit growth of the listed bacteria strains” value was 1 to 8 µg/mL. Also, the Hemolytic activity in series [11] is less than 80 µg/mL.
LRFLKKALKKLF-NH2 [SP10-2]: the “phytotoxicity to plant protoplasts (in words)” value in [13] (1 h incubation, light microscope) was “very low phytotoxicity”. Also, the “Phytotoxicity: peptide concentration where protoplasts show first signs of cytoplasmic degradation” value in series [13] (1 h incubation, 0, 10, 100, 200 µg/ml, light microscope) is 200 µg/mL. Besides, the MIC came out at 0.25 mg/L in series [2] (Table 4, incubation period 2d); 0.5 mg/L in series [3] (Table 4, incubation period 1d); 0.5 mg/L in series [4] (Table 4, incubation period 2d); 0.25 mg/L in series [8] (Table 4, incubation period 2d); 1.0 mg/L in series [9] (Table 4, incubation period 1d); 0.1 mg/L in series [10] (Table 4, incubation period 1d). Besides, in series [15], the “Hemolytic activity: peptide concentration leading to 25% hemoglobin release from human blood cells” value is more than 200 µg/mL. Besides, in series [16], the “Growth inhibition of bacteria/fungi on leaf surface” value was determined as 50%. Also, in [17], the “growth inhibition on tomato leaves” value is on record as 90%.
For LRFLKKILKHLF-NH2 [SP10-D], the MIC in series [1] was 10 mg/L; in series [2] (setting [19]) it was 5 mg/L; in series [5], 5 mg/L; in series [8] (setting [19]), 2 mg/L; in series [9] (setting [19]) it was more than 40 mg/L; in series [12], 5 mg/L. Moreover, the “phytotoxicity (in words)” value in [13] is “no phytotoxicity”. Further, in [18], the “growth inhibition on tomato leaves” value is given as “around 70%”.

The values above are taken from article PMC3741113, “De-Novo Design of Antimicrobial Peptides for Plant Protection” (PLoS ONE, 2013).
